What was measured:
Format in all cases: cell-based, human
[1] = tested on: gp78:UBE2G2; assay: co-IP of gp78 with transfected MYC-UBE2G2, +/- oleic acid; details: WT HT1080, oleic acid loading, three experiments, reviewer response
From the text: (§1) page 10: Major points: The phenotypes they show are strong but it would be nice to see the initial observations repeated in other cell lines. […] We have now generated HEK293 AUP1 KO cell lines and have recapitulated our initial results on domain requirements for both NHK and RI332 (Fig 1G-H, Fig 2C-D). We also provide data that E2 loss similarly occurs in these HEK293 AUP1 KO cells and that E2 stability can be restored by GFP-G2BR (Fig S5D and S5E). To extend our observations beyond HT1080 and HEK293, we also generated and examined M17 AUP1 KO cells, and observed a similar destabilization of UBE2G2 with loss of AUP1. […] Although, it is possible that the stability of UBE2G2 is due to the level of AUP1 in these cells, it is not clear whether the G2BR of AUP1 is always available for UBE2G2 binding and whether AUP1 acts as a sink for UBE2G2 when associated with lipid droplets. […] They can then compare the 'pulldown levels' of AUP1 and gp78 to the amounts of protein in the reference binding domains in (Figure 6). […] Alternatively, NHK degradation may be reduced under increasing Oleic acid levels but UBE2G2 binding is not affected. […] We have now loaded cells with oleic acid and assessed E2 levels and NHK degradation (Fig S5A and Fig S5B). […]

[2] = tested on: UBE2G2; assay: UBE2G2 levels in HT1080 cells loaded with oleic acid; details: HT1080, 200 μM oleic acid
Method: Plasmid transfections were carried out using PolyFect (Qiagen, Germantown, MD, USA) or JetPrime (Polyplus, New York, NY, USA) reagents. For CHX chase experiments, approximately 24 hours following plasmid transfection, cells were treated with 50 μg/mL CHX in complete media for the indicated times. For lipid droplet experiments, cells were treated with 200 μM oleic acid (Millipore Sigma) for 16 hours, beginning 24 hours following transfection. For assessment of GFP^u stability, cells were cultured in DMEM supplemented with 10% FetalPlex animal serum complex (Gemini Bio, West Sacramento, CA, USA) and treated with 50 μM emetine for the indicated times to inhibit protein synthesis. […] Clarified lysates or immunoprecipitates were denatured by heating in NuPAGE LDS Sample Buffer with β-mercaptoethanol at 70°C for 10 minutes, resolved on Bis-Tris polyacrylamide gels in NuPAGE MES or MOPS SDS running buffer and analyzed by western blotting. Proteins were detected using Clarity Western ECL (Bio-Rad, Hercules, CA, USA), Radiance Q (Azure Biosystems, Dublin, CA, USA), or SuperSignal Femto West (Thermo Scientific, Waltham, MA, USA) ECL reagents and a c280 Imager (Azure Biosystems) or autoradiography. […]

[3] = tested on: AUP1:UBE2G2; assay: co-IP of AUP1 with transfected MYC-UBE2G2, +/- oleic acid; details: WT HT1080, oleic acid loading, three experiments, reviewer response
From the text: as §1

SMILES: CCCCCCCC/C=C\CCCCCCCC(=O)O [oleic acid]
- decrease of gp78 co-association with MYC-UBE2G2 [1]: ~ 20%
- effect on UBE2G2 levels [2]: affected neither UBE2G2 levels
- decrease of AUP1 co-association with MYC-UBE2G2 [3]: ~ 27%

Reference: PMC8699718, “A structurally conserved site in AUP1 binds the E2 enzyme UBE2G2 and is essential for ER-associated degradation” (PLoS Biology, 2021)
